Source: BindingDB's records for doi:10.1021/jm034182u (Virginia Commonwealth University, 2004)

Target: E3 ubiquitin-protein ligase Mdm2 (Homo sapiens, UniProt Q00987)
Assay: ELISA-Based p53-MDM2 Binding Assay
Settings: pH 7.6; 37 °C
Experimental: ELISA plates were coated with equivalent amounts of either glutathione S-transferase (GST) protein or GST-MDM2 (1-188) fusion protein and incubated on a microtiter plate shaker overnight at 4 deg C. After washing the wells five times with PBS containing 0.2 M NaCl, the plates were incubated at 37 deg C with blocking solution (PBS containing 5% nonfat dry milk) for 2 hours. After the plates were washed five times, the GST-p53 was added, and the plates were incubated for an additional 30 minutes at 37 deg C. After another washing step, the plates were incubated with the anti-p53 monoclonal pAb421 (Oncogene Science, Inc.) in blocking solution for 1 hour at 37 deg C. The plates were again washed five times and incubated for 1 hour at 37 deg C with a goat anti-mouse IgG alkaline phosphatase conjugate (Promega, Inc.). Excess antibody was removed with 15 washes, the wells were filled with PBS, and the absorbance at 405 nm was read to establish background readings for the wells. […] Finally, the A405 was measured with a microplate spectrophotometer (Molecular Devices, Inc.). […] Absorbance values were normalized by subtraction of equivalent GST-seeded well values from their GST-mdm2 (1-188)-seeded neighbors. IC50 values were determined by fitting data to a three-parameter sigmoidal dose-response function.

E3 ubiquitin-protein ligase Mdm2, sequence (Q00987 whole entry): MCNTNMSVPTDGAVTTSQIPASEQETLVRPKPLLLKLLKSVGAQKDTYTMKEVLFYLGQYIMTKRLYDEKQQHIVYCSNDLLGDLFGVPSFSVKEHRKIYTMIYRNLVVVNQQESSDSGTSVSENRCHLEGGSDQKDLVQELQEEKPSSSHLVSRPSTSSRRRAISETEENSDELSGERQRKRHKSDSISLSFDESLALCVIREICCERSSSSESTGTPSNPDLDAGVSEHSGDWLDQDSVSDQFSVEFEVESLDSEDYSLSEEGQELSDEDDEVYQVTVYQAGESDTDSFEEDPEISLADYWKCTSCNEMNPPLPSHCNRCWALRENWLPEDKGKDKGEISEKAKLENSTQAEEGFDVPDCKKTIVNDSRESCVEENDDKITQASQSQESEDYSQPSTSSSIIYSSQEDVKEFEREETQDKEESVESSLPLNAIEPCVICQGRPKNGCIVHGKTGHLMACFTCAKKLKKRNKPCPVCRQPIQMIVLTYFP

IC50: 31.8 µM
Compound: CC(C)Oc1ccc(C(=O)NS(=O)(=O)c2ccc(N=Nc3c(O)n(-c4ccccc4)n(-c4ccccc4)c3=O)cc2)cc1
